According to PMC12336229, “Peptide-mimetics derived from leucyl-tRNA synthetase are potential agents for the therapy of mt-tRNA related diseases” (Frontiers in Pharmacology, 2025):
Square brackets hold non-standard residues; d marks the D form. Peptide text beside a SMILES is read from it.

Key:
[1] = Plasma stability (UPLC-MS); type: in vitro ADME, human; details: human EDTA plasma from four healthy volunteers, 37°C, gentle shaking, UPLC-MS (SIR); for remaining at 72 h, 0.2 mM: peak area vs time 0, read-out: Amount of detectable compound after incubation with human plasma
Description: To assess whether the β32_33 peptide, PMT, PMT-8a and PMT-8b peptide-mimetics are stable in blood, we set up a chromatographic assay able to evaluate compound concentration after incubation in human plasma.
Four different samples from healthy volunteers were used. Blood was drawn by venepuncture in vacutainer containing EDTA as an anticoagulant. Plasma was separated by centrifugation and immediately used for the experiments. Each compound was dissolved in 500 μL plasma at a final concentration of 0.2 mM and split into two aliquots, one of which was immediately analysed to assess the basal compound level (T0); the other was incubated at 37°C under gentle shaking, and the amount of each compound was measured at different time points (i.e., 1.5, 3, 6 and 72 h).
To perform chromatographic analyses, the samples were treated with 3 volumes of acetonitrile containing 1% formic acid and then extracted by using the Ostro™ pass-through sample preparation system to remove proteins and phospholipids. Samples were dried under vacuum, resuspended in 100 μL of 0.1% formic acid containing 5% acetonitrile, and then injected directly onto the chromatographic column.
Chromatographic analyses were performed on a Water Acquity H-Class UPLC system (Waters, Milford, MA, United States), including a quaternary solvent manager (QSM), a sample manager with a flow-through needle system (FTN), a photodiode array detector (PDA) and a single-quadruple mass detector with electrospray ionization source (ACQUITY QDa). Analyses were performed on a reverse phase C18 column (75 mm × 3.2 mm i. d., 2.5 μm particle size). The mobile phase was solvent A, 0.1% formic acid in water, and solvent B, 0.1% formic acid in acetonitrile. The flow rate was 0.5 mL/min, the column temperature was set at 25°C and the elution was performed by linearly increasing the concentration of solvent B up to 70% in 7 min. Mass spectrometric detection was performed in the positive electrospray ionization mode, using nitrogen as the nebulizer gas. Analyses were performed in the Total Ion Current (TIC) mode with a mass range of 100–1200 m/z. The capillary voltage was 0.8 kV, cone voltage 8 V, ion source temperature 120°C and probe temperature 600°C. Quantification was performed by Selected Ion Recording (SIR): at m/z = 917.88, corresponding to the [M+2H]^2+ ion obtained from either β32_33 peptide or PMT; at m/z = 961.42, corresponding to the [M + H] ^+ obtained from PMT-8a; and at m/z = 869.48, corresponding to the [M + H]^+ ion obtained from PMT-8b.

[2] = healthy animals; reached immediately, stable up to 24 h after injection; ref Peng et al., 2018; cited from earlier work
Excerpt: PMT radiolabelling with ^64Cu allowed us to follow the in vivo distribution of the peptide in the body districts of healthy animals over time.

mutant cybrids = assay: Confocal fluorescence microscopy, co-localization with mitochondria (Mitotracker Red); type: cell-based, human; details: Cy5 constructs 0.25 µM in glucose medium, imaged after 24 h, Mitotracker Red; mean ± SEM of at least five images
Description: Previously established osteosarcoma-derived (143B.TK-) cybrid cell lines from patients, which bear either the m.3243A>G mutation in mt-tRNA^Leu(UUR) or the m.8344A>G mutation in mt-tRNA^Lys and controls ([Perli et al., 2014]; [Perli et al., 2016]; [Perli et al., 2020]) were used.
Constructs made of compounds listed in Table 1, comprising D-peptides linked to the Cy5 fluorophore via maleimide cross-linker, were administered to sub-confluent cybrid cell cultures at 0.25 µM in glucose medium. About 24 h after treatment with each construct, cells were incubated with 200 nM Mitotracker Red FM (LifeTechnologies Italia, Monza, Italy) for 30 min at 37°C.
Subsequently, cells were visualized by confocal microscopy. Images of 800 × 800 px (at 88 nm/px) were acquired at the Olympus iX83 FluoView1200 laser scanning confocal microscope using a 60 × NA1,35 oil objective (Olympus Italia SRL Milano, Italy), zoom 3×, 559 nm, and 635 nm lasers and filter setting for Mitotracker Red and Cy5. The fluorescence images were analysed with the ImageJ software ([Rasband, 2018]) to determine the Pearson’s correlation coefficient.
For a subset of experiments, we evaluated the mt localization of constructs up to 72 h after treatment. PMT and PMT fragments were administered to sub-confluent cybrids at a concentration of 0.25 µM in the glucose medium. At 24-, 48- and 72-h after treatment, cells were incubated with Mitotracker Red and visualized by confocal microscopy. After each confocal imaging section, a fresh glucose medium was added to the cells, which were maintained under standard conditions (a humidified atmosphere of 95% air and 5% CO2 at 37°C).

CC(C)C[C@@H](NC(=O)[C@@H](Cc1ccccc1)NC(=O)[C@@H](CO)NC(=O)[C@@H](CCCCN)NC(=O)[C@H](N)CCCCN)C(=O)N[C@H](CO)C(=O)N1CCC[C@@H]1C(=O)N[C@H](CCCNC(=N)N)C(N)=O [PMT-8a] (H-[dK][dK][dS][dF][dL][dS][dP][dR]-NH2)
remaining at 72 h, 0.2 mM ([1]; 72 h): > 90%

[64Cu] [free ^64Cu]
Radioactivity concentration in different cortical regions [2]: 0.4–0.6 %ID/mL

CC[C@H](C)[C@H](NC(=O)[C@H](CC(C)C)NC(=O)[C@H](C)NC(=O)[C@@H](NC(=O)[C@H](CCCNC(=N)N)NC(=O)[C@@H]1CCCN1C(=O)[C@H](CO)NC(=O)[C@H](CC(C)C)NC(=O)[C@H](Cc1ccccc1)NC(=O)[C@H](CO)NC(=O)[C@H](CCCCN)NC(=O)[C@@H](N)CCCCN)[C@@H](C)O)C(=O)N[C@@H](CC(N)=O)C(=O)N[C@@H](Cc1ccccc1)C(=O)N[C@@H](CC(C)C)C(=O)N[C@H](C(N)=O)C(C)C [β32_33 peptide]
Pearson's correlation coefficient (PCC), mt localization (mutant cybrids): 0.78 ± 0.06 | metabolised at 1.5 h, 0.2 mM ([1]; 1.5 h, peak area vs time 0, read-out: Decrease of amount of compound after incubation with human plasma): 90% | Amount of detectable compound after incubation with human plasma ([1]; 72 h, 0.2 mM, peak area vs time 0): almost undetectable

CC[C@@H](C)[C@@H](NC(=O)[C@@H](CC(C)C)NC(=O)[C@@H](C)NC(=O)[C@H](NC(=O)[C@@H](CCCNC(=N)N)NC(=O)[C@H]1CCCN1C(=O)[C@@H](CO)NC(=O)[C@H](N)CC(C)C)[C@H](C)O)C(N)=O [PMT-8b] (H-[dL][dS][dP][dR][dT][dA][dL][dI]-NH2)
remaining at 72 h, 0.2 mM ([1]; 72 h): > 85%
